Laboratory results published in PMC8579695, “The Stringent Response Inhibits 70S Ribosome Formation in Staphylococcus aureus by Impeding GTPase-Ribosome Interactions” (mBio, 2021).

System: Era-His association to 30S ribosomes in S. aureus USA300
Experiment: In vivo ribosome association of Era-His to 30S in S. aureus cells
Type: cell-based, Staphylococcus aureus
Conditions: USA300 (p)ppGpp-null Δera iTET-era-His; 0.05 or 60 μg/ml mupirocin for 15 min
From the text: Upon induction of the stringent response, cellular levels of (p)ppGpp increase, while concentration of GTP drops ([38]). Having observed decreased association of RA-GTPases to ribosomal subunits in vitro, we wanted to examine the interaction under more physiologically relevant conditions. To investigate RA-GTPases interactions with the ribosome in the bacterial cell, we used an era deletion mutant in a community-acquired methicillin-resistant S. aureus (CA-MRSA) USA300 strain that we had previously constructed ([10]). […] To establish whether induction of the stringent response in bacterial cells leads to a decrease in the association of Era to the 30S subunit, the era mutant was complemented with an Atet-inducible 6×His-tagged version of era using the iTET vector. […] Normalized 30S pools were analyzed for associated Era-His using α-His Western immunoblotting (Fig. 4C). Crude lysates sampled prior to loading on the sucrose gradients were also analyzed to ensure equal loading and equal expression of Era-His between samples (see Fig. S5B). […]
FIG 4 Association of Era to the 30S subunit is reduced under stringent conditions. […] RNA content was analyzed at an absorbance of 260 nm. […] Ribosomal subunits were separated, and the amount of Era-His associated in each strain was detected using HRP-conjugated α-His antibodies. […]

SMILES: C/C(=C\C(=O)OCCCCCCCCC(=O)O)C[C@@H]1OC[C@H](C[C@@H]2O[C@H]2[C@@H](C)[C@H](C)O)[C@@H](O)[C@H]1O [mupirocin]
- ribosome association of Era-His after treatment, (p)ppGpp-null strain: decrease is not seen
